Laboratory results from patent US9394261B2, “Aryl amine substituted pyrimidine and quinazoline and their use as anticancer drugs” (National Yang-Ming University, priority 2012, dated 2016).

Test system: SK-Hep-1 cell lines (a hepatocellular carcinoma (HCC) cell)
Assay: MTT assay, growth inhibition of SK-Hep-1 cells
Format: cell-based
Conditions: Homo sapiens, SK-HEP1, 48 h, SK-Hep-1 cells, 48 hours
Description: MTT assay was used to measure growth inhibition. […] MTT (3-(4,5-dimethylthiazol-2-yl)-2,5-diphenyl tetrazolium bromide) assay was performed as follow.
(§1) The effect of individual test compounds on cell viability was assessed by using the MTT in 6 replicates. Sk-Hep-1 cells were seeded and incubated in 96-well, flat-bottomed plates for 24 hours, and were exposed to various concentrations of test compounds dissolved in DMSO (final concentration, 0.1%) for 48 hours. Controls received DMSO vehicle at a concentration equal to that in drug-treated cells. The medium was removed, replaced by 200 μL of 0.5 mg/mL MTT in 10% fetal bovine serum containing DMEM (Dulbecco's Modified Eagle Medium), and cells were incubated in the carbon dioxide incubator at 37° C. for 2 hours. Supernatants were removed from the wells and the reduced MTT dye was solubilized in 100 μL/well DMSO. Absorbance at 570 nm was determined on a plate reader.
The SK-Hep1 cells were then analyzed with western blot assay and MTT assay.

| SMILES | IC50 |
| --- | --- |
| C#Cc1cccc(Nc2ccnc(Cl)n2)c1 [Compound 1, 2-Chloro-N-(3-ethynylphenyl)pyrimidin-4-amine] | > 40 µM |
| Clc1cccc(Nc2ccnc(Cl)n2)c1 [Compound 2, 2-Chloro-N-(3-chlorophenyl)pyrimidin-4-amine] | > 40 µM |
| FC(F)(F)c1cc(Nc2ccnc(Cl)n2)ccc1Cl [Compound 3, 2-Chloro-N-(4-chloro-3-(trifluoromethyl)phenyl)pyrimidin-4-amine] | > 40 µM |
| Clc1nccc(NCc2ccccc2)n1 [Compound 5, N-Benzyl-2-chloropyrimidin-4-amine] | > 40 µM |
| C#Cc1cccc(Nc2ccnc(Nc3cccc(C#C)c3)n2)c1 [Compound 6, N^2,N^4-Bis(3-ethynylphenyl)pyrimidine-2,4-diamine] | < 10 µM |
| FC(F)(F)c1cc(Nc2ccnc(Nc3ccc(Cl)c(C(F)(F)F)c3)n2)ccc1Cl [Compound 7, N^2,N^4-Bis(4-chloro-3-(trifluoromethyl)phenyl)pyrimidine-2,4-diamine] | 10 to 20 µM |
| C#Cc1cccc(N(C)c2nc(Cl)nc3cc(OC)c(OC)cc23)c1 [Compound 9, 2-Chloro-N-(3-ethynylphenyl)-6,7-dimethoxy-N-methyl quinazoline-4-amine] | 10 to 20 µM |
| COc1cc2nc(Cl)nc(Nc3cc(C)ccc3F)c2cc1OC [Compound 12, 2-Chloro-N-(2-fluoro-5-methylphenyl)-6,7-dimethoxy quinazoline-4-amine] | > 40 µM |
| COc1cc2nc(Cl)nc(Nc3ccc(O)cc3C)c2cc1OC [Compound 15, 4-(2-Chloro-6,7-dimethoxyquinazoline-4-ylamino)-3-methylphenol] | > 40 µM |
| COc1cc2nc(Cl)nc(NCc3ccccc3)c2cc1OC [Compound 17, N-Benzyl-2-chloro-6,7-dimethoxyquinazoline-4-amine] | 10 to 20 µM |

Next, values leading:

| IC50 | SMILES |
| --- | --- |
| 10 to 20 µM | COc1cc2nc(Cl)nc(Nc3cccc(Cl)c3)c2cc1OC [Compound 10, 2-Chloro-N-(3-chlorophenyl)-6,7-dimethoxyquinazoline-4-amine] |
| > 40 µM | COc1cc2nc(Cl)nc(Nc3cccc(O)c3)c2cc1OC [Compound 11, 3-(2-Chloro-6,7-dimethoxyquinazoline-4-ylamino)phenol] |
| 10 to 20 µM | COc1cc2nc(Cl)nc(Nc3ccc(Oc4ccccc4)cc3)c2cc1OC [Compound 14, 2-Chloro-6,7-dimethoxy-N-(4-phenoxyphenyl)quinazoline-4-amine] |
| > 40 µM | COc1cc2nc(Cl)nc(Nc3cccc(Oc4ccc(C#N)cc4)c3)c2cc1OC [Compound 16, 4-(3-(2-Chloro-6,7-dimethoxyquinazoline-4-ylamino)phenoxy)benzonitrile] |
| < 10 µM | C#Cc1cccc(Nc2nc(Nc3ccc(Cl)c(C(F)(F)F)c3)nc3cc(OC)c(OC)cc23)c1 [Compound 18, N^2-(4-Chloro-3-(trifluoromethyl)phenyl)-N^4-(3-ethynylphenyl)-6,7-dimethoxy-quinazoline-2,4-diamine] |
| < 10 µM | C#Cc1cccc(Nc2nc(Nc3cccc(Cl)c3)nc3cc(OC)c(OC)cc23)c1 [Compound 20, N^2-(3-Chlorophenyl)-N^4-(3-ethynylphenyl)-6,7-dimethoxy quinazoline-2,4-diamine] |
| 10 to 20 µM | C#Cc1cccc(Nc2nc(Nc3ccc(Oc4ccc(C#N)cc4)cc3)nc3cc(OC)c(OC)cc23)c1 [Compound 24, 4-(4-(4-(3-Ethynylphenylamino)-6,7-dimethoxyquinazolin-2-ylamino)phenoxy)benzonitrile] |
| < 10 µM | C#Cc1cccc(Nc2nc(Nc3cccc(C#C)c3)c3cc(OC)c(OC)cc3n2)c1 [Compound 25, N^2,N^4-Bis(3-ethynylphenyl)-6,7-dimethoxyquinazoline-2,4-diamine] |
| < 10 µM | C#Cc1cccc(Nc2nc(Nc3cccc(CC)c3)nc3cc(OC)c(OC)cc23)c1 [Compound 26, N^2-(3-ethylphenyl)-N^4-(3-ethynylphenyl)-6,7-dimethoxy quinazoline-2,4-diamine] |
| < 10 µM | C#Cc1cccc(Nc2nc(NCc3ccc(OC)c(OC)c3)nc3cc(OC)c(OC)cc23)c1 [Compound 29, N^2-(3,4-dimethoxybenzyl)-N^4-(3-ethynylphenyl)-6,7-dimethoxyquinazoline-2,4-diamine] |
| < 10 µM | C#Cc1cccc(Nc2nc(Nc3cccc(NS(=O)(=O)c4ccccc4)c3)nc3cc(OC)c(OC)cc23)c1 [Compound 30, N-(3-(4-(3-ethynylphenylamino)-6,7-dimethoxyquinazolin-2-ylamino)phenyl)benzenesulfonamide] |
| < 10 µM | C#Cc1cccc(Nc2nc(Nc3cccc(NS(=O)(=O)c4ccc(C(F)(F)F)cc4Br)c3)nc3cc(OC)c(OC)cc23)c1 [Compound 32, 2-Bromo-N-(3-(4-(3-ethynylphenylamino)-6,7-dimethoxyquinazolin-2-ylamino)phenyl)-4-(trifluoromethyl)benzenesulfonamide] |

Same assay, conditions: SK-Hep-1 (HCC) cells

| SMILES | growth-inhibitory activity (MTT), in words |
| --- | --- |
| C#Cc1cccc(Nc2ccnc(Nc3cccc(C#C)c3)n2)c1 [Compound 6, N^2,N^4-Bis(3-ethynylphenyl)pyrimidine-2,4-diamine] | more potent anti-tumor activity than the mono-substituted pyrimidine derivatives |
| FC(F)(F)c1cc(Nc2ccnc(Nc3ccc(Cl)c(C(F)(F)F)c3)n2)ccc1Cl [Compound 7, N^2,N^4-Bis(4-chloro-3-(trifluoromethyl)phenyl)pyrimidine-2,4-diamine] | more potent anti-tumor activity than the mono-substituted pyrimidine derivatives |

Same assay, conditions: SK-Hep-1 cells, 48 hours

| IC50 | SMILES |
| --- | --- |
| 12.3 ± 0.6 µM | C#Cc1cccc(N(C)c2nc(Cl)nc3cc(OC)c(OC)cc23)c1 [Compound 9, 2-Chloro-N-(3-ethynylphenyl)-6,7-dimethoxy-N-methyl quinazoline-4-amine] |
| 15.3 ± 0.6 µM | COc1cc2nc(Cl)nc(Nc3ccc(Oc4ccccc4)cc3)c2cc1OC [Compound 14, 2-Chloro-6,7-dimethoxy-N-(4-phenoxyphenyl)quinazoline-4-amine] |
| 3.9 µM | C#Cc1cccc(Nc2nc(Nc3cccc(Oc4ccc(C#N)cc4)c3)nc3cc(OC)c(OC)cc23)c1 [Compound 23, 4-(3-(4-(3-Ethynylphenylamino)-6,7-dimethoxyquinazolin-2-ylamino)phenoxy)benzonitrile] |
| 14.5 µM | C#Cc1cccc(Nc2nc(Nc3ccc(Oc4ccc(C#N)cc4)cc3)nc3cc(OC)c(OC)cc23)c1 [Compound 24, 4-(4-(4-(3-Ethynylphenylamino)-6,7-dimethoxyquinazolin-2-ylamino)phenoxy)benzonitrile] |
| 2.6 µM | C#Cc1cccc(Nc2nc(NCc3ccc(Cl)c(C(F)(F)F)c3)nc3cc(OC)c(OC)cc23)c1 [Compound 27, N^2-(4-Chloro-3-(trifluoromethyl)benzyl)-N^4-(3-ethynylphenyl)-6,7-dimethoxyquinazoline-2,4-diamine] |
| 2.55 µM | C#Cc1cccc(Nc2nc(NCc3cccc(OC(F)(F)F)c3)nc3cc(OC)c(OC)cc23)c1 [Compound 28, N^4-(3-Ethynylphenyl)-6,7-dimethoxy-N^2-(3-(trifluoromethoxy)benzyl)quinazoline-2,4-diamine] |
| 1.95 µM | C#Cc1cccc(Nc2nc(Nc3cccc(NS(=O)(=O)c4cccc(C(F)(F)F)c4)c3)nc3cc(OC)c(OC)cc23)c1 [Compound 31, N-(3-(4-(3-Ethynylphenylamino)-6,7-dimethoxyquinazolin-2-ylamino)phenyl)-3-(trifluoromethyl)benzenesulfonamide] |
| 2.65 µM | C#Cc1cccc(Nc2nc(Nc3cccc(NC(=O)c4ccccc4)c3)nc3cc(OC)c(OC)cc23)c1 [Compound 33, N-(3-(4-(3-ethynylphenylamino)-6,7-dimethoxyquinazolin-2-ylamino)phenyl)benzamide] |

Test system: PLC5 cell lines
Assay: MTT assay, growth inhibition of PLC5 cells
Format: cell-based
Conditions: PLC5, PLC5 cells
Description: as §1
Next, compounds 19, and 34-36 were screened against a panel of Hep3B cell lines for growth-inhibitory activities. […] Compounds 87-90, 95 and 96 were screened against a panel of PLC5 cell lines for growth-inhibitory activities.

| SMILES | IC50 |
| --- | --- |
| C#Cc1cccc(Nc2nc(Nc3ccc(Cl)c(Oc4ccc(C#N)cc4)c3)nc3cc(OC)c(OC)cc23)c1 [Compound 87, 4-(2-chloro-5-((4-((3-ethynylphenyl)amino)-6,7-dimethoxyquinazolin-2-yl)amino)phenoxy)benzonitrile] | 8.2 µM |
| C#Cc1cccc(Nc2nc(Nc3ccc(Cl)c(Oc4ccc(C#N)c(C)c4)c3)nc3cc(OC)c(OC)cc23)c1 [Compound 89, 4-(2-chloro-5-((4-((3-ethynylphenyl)amino)-6,7-dimethoxyquinazolin-2-yl)amino)phenoxy)-2-methylbenzonitrile] | 20.2 µM |
